Experimental data: patent US20090197872A1 (priority 2006, published 2009)
Structures can show the parent of a compound that is named as a salt.

Target: T1, α7-subtype of nicotinic receptors (Rattus norvegicus, UniProt Q05941)
T1 construct: from tissue; host or cells: rat brain
Test: biochemical
Settings: read-out: Inhibition of 3H-α-Bungarotoxine Binding IC50

T1 sequence (Q05941 23-502): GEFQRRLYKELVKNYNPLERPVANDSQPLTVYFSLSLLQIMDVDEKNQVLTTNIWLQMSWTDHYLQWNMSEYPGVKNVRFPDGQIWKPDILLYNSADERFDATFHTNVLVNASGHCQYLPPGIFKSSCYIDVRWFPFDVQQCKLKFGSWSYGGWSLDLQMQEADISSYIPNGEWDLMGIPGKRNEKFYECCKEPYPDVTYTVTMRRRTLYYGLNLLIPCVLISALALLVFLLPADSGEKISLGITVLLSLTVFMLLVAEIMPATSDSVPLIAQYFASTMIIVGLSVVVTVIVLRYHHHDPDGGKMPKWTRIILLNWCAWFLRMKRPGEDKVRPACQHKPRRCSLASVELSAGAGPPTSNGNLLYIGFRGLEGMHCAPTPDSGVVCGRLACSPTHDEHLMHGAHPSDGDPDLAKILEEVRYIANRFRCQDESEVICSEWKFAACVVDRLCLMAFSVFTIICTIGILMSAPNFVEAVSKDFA

## O=C(Nc1cnc(N2CCN3CCC2CC3)nc1)Oc1ccccc1 [Compound A2, [2-(1,4-Diaza-bicyclo[3.2.2]non-4-yl)-pyrimidin-5-yl]-carbamic Acid Phenyl Ester Hydrochloric Acid Salt]
  IC50: < 300 nM
